Measured values taken from patent US8987474B2 (University of South Florida, priority 2006, dated 2015).

Target: Shp2 (Homo sapiens (Human), UniProt Q06124)
Assay: PTP activity assay (DiFMUP substrate) with GST-Shp2
Assay type: biochemical
Conditions: for IC50: Table II, Shp2
Text: All constructs were verified by DNA sequencing.
Recombinant DEP1 was from Abcam.

Sequence of Shp2 (Q06124 205-593): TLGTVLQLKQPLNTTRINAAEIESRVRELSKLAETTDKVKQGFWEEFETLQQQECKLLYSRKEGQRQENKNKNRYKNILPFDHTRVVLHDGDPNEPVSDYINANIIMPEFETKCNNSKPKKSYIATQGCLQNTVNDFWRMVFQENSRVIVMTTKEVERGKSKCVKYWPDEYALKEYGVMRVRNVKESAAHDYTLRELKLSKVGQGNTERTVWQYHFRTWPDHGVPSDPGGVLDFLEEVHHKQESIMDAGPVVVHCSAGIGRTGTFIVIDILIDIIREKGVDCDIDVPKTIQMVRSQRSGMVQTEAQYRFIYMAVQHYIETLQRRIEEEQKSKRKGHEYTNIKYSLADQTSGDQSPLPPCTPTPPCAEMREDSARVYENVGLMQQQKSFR

Structure (SMILES)	% PTP activity (concentration not given)	% PTP activity (at 20 μM)	IC50
CN(Cc1ccccc1)S(=O)(=O)c1ccc2c(c1)/C(=N/Nc1ccccc1[N+](=O)[O-])C(=O)N2 [RPM136, 3-[(2-Nitrophenyl)hydrazono]-2-oxo-2,3-dihydro-1H-indole-5-sulfonic acid benzyl-methylamide]	39 ± 8% (12)	–	–
CC(C)NS(=O)(=O)c1ccc2c(c1)/C(=N/Nc1cccc(C(=O)NCCN3CCOCC3)c1)C(=O)N2 [RPM334, 3-[N′-(5-Isopropylsulfamoyl-2-oxo-1,2-dihydro-indol-3-ylidene)hydrazino]-N-(2-morpholin-4-yl-ethyl)benzamide]	–	39 ± 5% (2) at 20 μM	–
O=C1Nc2ccc(S(=O)(=O)N3CCOCC3)cc2/C1=N/Nc1ccccc1[N+](=O)[O-] [RPM177]	36 ± 8% (6)	–	–
CCC(C)NS(=O)(=O)c1ccc2c(c1)/C(=N/Nc1ccccc1[N+](=O)[O-])C(=O)N2 (centres unmarked) [RPM173, 3-[(2-Nitrophenyl)hydrazono]-2-oxo-2,3-dihydro-1H-indole-5-sulfonic acid sec-butylamide]	33 ± 7% (12)	–	–
CCNC(=O)c1ccccc1N/N=C1\C(=O)Nc2ccc(S(=O)(=O)NC(C)C)cc21 [RPM296, N-Ethyl-2-[N′-(5-isopropylsulfamoyl-2-oxo-1,2-dihydro-indol-3-ylidene)hydrazino]benzamide]	–	48 ± 2% (2) At 20 μM	–
CCC(C)NS(=O)(=O)c1ccc2c(c1)/C(=N/Nc1ccccc1Cl)C(=O)N2 (centres unmarked) [HL2-016-13]	35 ± 4% (6)	–	–
COC(=O)c1cc(NC(=O)c2ccc3cc(C(=O)OC)ccc3c2)cc(C(=O)OC)c1 [HL2-026-Intermediate]	40 ± 4% (6)	–	33 to 100 µM
O=C1Nc2ccc(S(=O)(=O)NCc3ccc(Cl)cc3)cc2/C1=N/Nc1ccccc1Cl [HL2-016-4]	32 ± 17% (12)	–	–
O=C1Nc2ccc(S(=O)(=O)NCc3ccccn3)cc2/C1=N/Nc1ccccc1Cl [HL2-016-7]	41 ± 23% (12)	–	–
COCCNS(=O)(=O)c1ccc2c(c1)/C(=N/Nc1ccccc1Cl)C(=O)N2 [HL2-016-12]	32 ± 3% (6)	–	–
O=C(O)c1ccc2cc(C(=O)Nc3ccccc3)ccc2c1 [RPM183]	79 ± 16 (7) %	–	–
CN(C)S(=O)(=O)c1ccc2c(c1)/C(=N/Nc1ccccc1Cl)C(=O)N2 [HL2-016-1]	36 ± 11% (12)	–	–
COc1ccc(CNS(=O)(=O)c2ccc3c(c2)/C(=N/Nc2ccccc2[N+](=O)[O-])C(=O)N3)cc1 [RPM138, 3-[(2-Nitrophenyl)hydrazono]-2-oxo-2,3-dihydro-1H-indole-5-sulfonic acid 4-methoxybenzylamide]	36 ± 4% (6)	–	–
CC(C)NS(=O)(=O)c1ccc2c(c1)/C(=N/Nc1ccccc1C(=O)NCc1ccco1)C(=O)N2 [RPM292, N-Furan-2-ylmethyl-2-[N′-(5-isopropylsulfamoyl-2-oxo-1,2-dihydro-indol-3-ylidene)hydrazino]benzamide]	–	47 ± 7% (20 At 20 μM	33 to 100 µM
CCN(CC)C(=O)c1ccc2c(c1)/C(=N/Nc1ccccc1C(=O)O)C(=O)N2 [HL2-070-1]	–	100.18% (1) at 20 μM	–
CN(Cc1ccccc1)S(=O)(=O)c1ccc2c(c1)/C(=N/Nc1ccccc1Cl)C(=O)N2 [HL2-016-16]	64 ± 12% (6)	–	–
CNC(=O)c1ccccc1N/N=C1\C(=O)Nc2ccc(S(=O)(=O)NC(C)C)cc21 [RPM295, 2-[N′-(5-Isopropylsulfamoyl-2-oxo-1,2-dihydro-indol-3-ylidene)hydrazino]-N-methylbenzamide]	–	43 ± 2% (2) At 20 μM	–
O=C(O)c1cc(NC(=O)c2ccc3cc(C(=O)O)ccc3c2)cc(C(=O)O)c1 [HL2-026]	87 ± 14% (6)	–	–
O=C1Nc2ccc(S(=O)(=O)O)cc2/C1=N/Nc1c(F)c(F)c(F)c(F)c1F [RPM222, 2-Oxo-3-(pentafluorophenylhydrazono)-2,3-dihydro-1H-indole-5-sulfonic acid]	–	58 ± 6% (3) at 20 μM	33 to 100 µM
CN(C)S(=O)(=O)c1ccc2c(c1)/C(=N/Nc1ccccc1[N+](=O)[O-])C(=O)N2 [RPM124, 3-[(2-Nitrophenyl)hydrazono]-2-oxo-2,3-dihydro-1H-indole-5-sulfonic acid dimethylamide]	52 ± 5% (6)	–	33 to 100 µM
O=C1Nc2ccc(S(=O)(=O)NCc3cccs3)cc2/C1=N/Nc1ccccc1Cl [HL2-016-6]	51 ± 3% (6)	–	–
COCCNS(=O)(=O)c1ccc2c(c1)/C(=N/Nc1ccccc1[N+](=O)[O-])C(=O)N2 [RPM171, 3-[(2-Nitrophenyl)hydrazono]-2-oxo-2,3-dihydro-1H-indole-5-sulfonic acid (2-methoxyethyl)amide]	44 ± 8% (12)	–	–
CC(C)NC(=O)c1ccc2c(c1)/C(=N/Nc1ccccc1C(=O)O)C(=O)N2 [HL2-070-6]	–	78.87% (1) at 20 μM	–
O=C(O)c1ccc2cc(C(=O)Nc3c(O)cccc3C(=O)O)ccc2c1 [RPM204]	–	68 ± 5% (3) at 20 uM	33 to 100 µM

Structure (SMILES)	% PTP activity (concentration not given)	% PTP activity (at 20 μM)	IC50
O=C(O)c1cccc(NC(=O)c2ccc3cc(C(=O)O)ccc3c2)c1 [HL2-022-1]	53 ± 4% (6)	–	–
CCCNS(=O)(=O)c1ccc2c(c1)/C(=N/Nc1ccccc1Cl)C(=O)N2 [HL2-016-9]	48 ± 1% (6)	–	–
CC(C)NS(=O)(=O)c1ccc2c(c1)/C(=C/Nc1cccc(C(=O)O)c1)C(=O)N2 [RPM304, 3-[(5-Isopropylsulfamoyl-2-oxo-1,2-dihydro-indol-3-ylidenemethyl)amino]benzoic acid]	–	82.31% (1) At 20 μM	33 to 100 µM
CN(C)S(=O)(=O)c1ccc2c(c1)/C(=N/Nc1ccccc1[N+](=O)[O-])C(=O)N2Cc1ccccc1 [RPM156]	34 ± 4% (12)	–	–
CC(C)NS(=O)(=O)c1ccc2c(c1)/C(=N/Nc1ccccc1C(=O)NCc1cccnc1)C(=O)N2 [RPM290, 2-[N′-(5-Isopropylsulfamoyl-2-oxo-1,2-dihydro-indol-3-ylidene)hydrazino]-N-pyridin-3-ylmethylbenzamide]	–	46 ± 2% (2) At 20 μM	33 to 100 µM
O=C1Nc2ccc(S(=O)(=O)O)cc2/C1=N/Nc1ccccc1 [RPM215, 2-Oxo-3-(phenylhydrazono)-2,3-dihydro-1H-indole-5-sulfonic acid]	–	51 ± 3% (3) at 20 μM	–
O=C1Nc2ccc(S(=O)(=O)O)cc2/C1=N/Nc1ccc(Cl)cc1Cl [RPM224, 2-Oxo-3-[(2,4-dichlorophenylhydrazono)]-2,3-dihydro-1H-indole-5-sulfonic acid]	–	81 ± 10% (3) at 20 μM	33 to 100 µM
O=C1Nc2ccccc2/C1=N/Nc1ccccc1[N+](=O)[O-] [HL1-047]	93 ± 9% (3)	–	33 to 100 µM
CCOC(=O)c1cccc(NC(=O)c2ccc3cc(C(=O)OC)ccc3c2)c1 [HL2-022-1-Intermediate]	68 ± 20% (7)	–	–
NS(=O)(=O)c1ccc(NC(=O)c2ccc3cc(C(=O)O)ccc3c2)cc1 [RPM195]	–	54 ± 6% (3) at 20 uM	–
CCc1ccccc1N/N=C1\C(=O)Nc2ccc(C(=O)O)cc21 [RPM320, 3-[(2-Ethylphenyl)hydrazono]-2-oxo-2,3-dihydro-1H-indole-5-carboxylic acid]	–	44 ± 5% (2) At 20 μM	–
NS(=O)(=O)c1ccc2c(c1)/C(=N/Nc1ccccc1Cl)C(=O)N2 [HL2-016.2]	40 ± 8% (12)	–	–
CC(C)NS(=O)(=O)c1ccc2c(c1)/C(=N/Nc1ccccc1C(=O)NCc1ccccc1)C(=O)N2 [RPM287, N-Benzyl-2-[N′-(5-isopropylsulfamoyl-2-oxo-1,2-dihydro-indol-3-ylidene)hydrazino]benzamide]	–	48 ± 10% (2) At 20 μM	–
CC(C)NS(=O)(=O)c1ccc2c(c1)/C(=N/Nc1ccccc1C(N)=O)C(=O)N2 [RPM283, 2-[N′-(5-Isopropylsulfamoyl-2-oxo-1,2-dihydro-indol-3-ylidene)hydrazino]benzamide]	–	52 ± 7% (2) At 20 μM	–
O=C1Nc2ccc(S(=O)(=O)NCc3cccnc3)cc2/C1=N/Nc1ccccc1Cl [HL2-016-18]	78 ± 10% (6)	–	–
O=C1Nc2ccc(S(=O)(=O)NCc3ccccn3)cc2/C1=N/Nc1ccccc1[N+](=O)[O-] [RPM135, 3-[(2-Nitrophenyl)hydrazono]-2-oxo-2,3-dihydro-1H-indole-5-sulfonic acid (pyridin-2-ylmethyl)amide]	47 ± 10% (12)	–	33 to 100 µM
O=C1Nc2ccccc2/C1=N/Nc1cccc([N+](=O)[O-])c1 [HL1-050-2]	32 ± 3% (3)	–	–
CC(C)NS(=O)(=O)c1ccc2c(c1)/C(=N/Nc1ccccc1C(=O)N(C)C)C(=O)N2 [RPM294, 2-[N′-(5-Isopropylsulfamoyl-2-oxo-1,2-dihydro-indol-3-ylidene)hydrazino]-N,N-dimethylbenzamide]	–	48 ± 0% (2) At 20 μM	–
O=C1Cc2cc(S(=O)(=O)NCc3ccc(Cl)cc3)ccc2N1 [RPM307, 2-Oxo-2,3-dihydro-1H-indole-5-sulfonic acid 4-chloro-benzylamide]	–	39 ± 10% (20 at 20 μM	–
NS(=O)(=O)c1ccc2c(c1)/C(=N/Nc1ccccc1C(=O)O)C(=O)N2 [RPM188, 2-[N′-(2-Oxo-5-sulfamoyl-1,2-dihydro-indol-3-ylidene)hydrazino]benzoic acid]	–	65 ± 3% (3) at 20 μM	–
O=C1Nc2ccc(S(=O)(=O)NCC3CCCO3)cc2/C1=N/Nc1ccccc1[N+](=O)[O-] (centres unmarked) [RPM172, 3-[(2-Nitrophenyl)hydrazono]-2-oxo-2,3-dihydro-1H-indole-5-sulfonic acid (tetrahydrofuran-2-ylmethyl)amide]	35 ± 5% (12)	–	–
CN(C)CCCNS(=O)(=O)c1ccc2c(c1)/C(=N/Nc1ccccc1[N+](=O)[O-])C(=O)N2 [HL2-016-21]	77 ± 2% (6)	–	–
COc1cccc(CNS(=O)(=O)c2ccc3c(c2)/C(=N/Nc2ccccc2[N+](=O)[O-])C(=O)N3)c1 [RPM137, 3-[(2-Nitrophenyl)hydrazono]-2-oxo-2,3-dihydro-1H-indole-5-sulfonic acid 3-methoxybenzylamide]	31 ± 4% (12)	–	–
CCOC(=O)c1cccc(N/C=C2\C(=O)Nc3ccc(S(=O)(=O)NC(C)C)cc32)c1 [RPM302, 3-[(5-Isopropylsulfamoyl-2-oxo-1,2-dihydro-indol-3-ylidenemethyl)amino]benzoic acid ethyl ester]	–	51 ± 7% (2) at 20 μM	33 to 100 µM
